Experimental data taken from patent US10004679B2, “Compositions of Amorphophallus konjac and methods for their use in skin care” (Vidya Herbs, Inc., priority 2014, dated 2018).

Legend:
Assay type in all cases: biochemical
[1] = biological target: Porcine pancreatic elastase (Sus scrofa, UniProt P00772); experiment: In vitro anti-elastase activity
Method: The assay employed was based on methods from the literature. This assay was performed in 0.2 mM Tris-HCL buffer (pH 8.0). Porcine pancreatic elastase (PE-E.C.3.4.21.36) was dissolved to make a 3.33 mg/mL stock solution in sterile water. The substrate N-succinyl-Ala-Ala-Ala-p-nitroanilide (AAAPVN) was dissolved in buffer at 1.6 mM. The test extracts were incubated with the enzyme for 15 minutes before adding substrate to begin the reaction. The final reaction mixture (250 μL total volume) contained buffer, 0.8 mM AAAPVN,1 mg/mL PE and 25 mg test extract. EGCG (1 mg/mL) was used as a positive control. Negative controls were performed using water. Absorbance values between 381 and 402 nm (following pre-screen scans) were measured immediately following addition of the substrate and then continuous for 20 minutes. FIG. 6

[2] = test system: Collagenase from Clostridium histolyticum; experiment: In vitro anti-collagenase activity (FALGPA substrate)
Method: The assay employed was based on spectrophotometric methods reported in the literature. The assay was performed in 50 mM Tricine buffer (pH 7.5 with 400 mM NaCl and 10 mM CaCl2). Collagenase from Clostridium histolyticum (ChC-[…]) was dissolved in buffer for use at an initial concentration of 0.8 units/mL according to the supplier's activity data. The synthetic substrate N-[3-(2-furyl)acryloyl]-Leu-Gly-Pro-Ala (FALGPA) was dissolved in Tricine buffer to 2 mM. […] The final reaction mixture (150 μL total volume) contained Tricine buffer, 0.8 mM FALGPA, 0.1 units ChC and 20-100 μg test extracts. Negative controls were performed with water. Absorbance at 335 nm was measured immediately after adding substrate and then continuous for 20 minutes. EGCG, 250 μM (0.114 mg/mL) was used as a positive control. FIG. 9

Mushroom tyrosinase = experiment: In vitro anti-tyrosinase activity (L-DOPA, dopachrome at 475 nm)
Method: Mushroom tyrosinase (Prod. No. T7755) and L-DOPA were purchased from Sigma Adrich. […] We also prepared positive controls of lmg/mL kojic acid solutions (with water), with enzyme. Twenty 20 μL of 0.85 mM L-DOPA solution as the substrate was added into every sample and blank. These assay mixtures were incubated at 25° C. for 10 min. The amount of dopachrome produced in the reaction mixture was measured at 475 nm.

Porcine pancreatic elastase, sequence (P00772 27-266): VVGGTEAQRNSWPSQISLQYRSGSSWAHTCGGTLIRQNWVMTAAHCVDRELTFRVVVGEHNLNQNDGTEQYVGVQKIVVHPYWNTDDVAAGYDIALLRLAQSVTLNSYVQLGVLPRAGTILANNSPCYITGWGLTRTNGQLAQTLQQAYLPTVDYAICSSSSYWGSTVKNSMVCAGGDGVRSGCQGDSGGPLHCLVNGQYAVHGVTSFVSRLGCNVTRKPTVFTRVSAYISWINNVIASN

Compound | % inhibition of Elastase activity ([1]; 20 μg/ml) | % inhibition of Elastase activity ([1]; 40 μg/ml) | % inhibition of Elastase activity ([1]; 60 μg/ml) | % inhibition of Elastase activity ([1]; 80 μg/ml) | % inhibition of Elastase activity ([1]; 100 μg/ml) | % inhibition of Collagenase activity ([2]; 20 μg/ml) | % inhibition of Collagenase activity ([2]; 40 μg/ml) | % inhibition of Collagenase activity ([2]; 60 μg/ml) | % inhibition of Collagenase activity ([2]; 80 μg/ml) | % inhibition of Collagenase activity ([2]; 100 μg/ml) | % inhibition of tyrosinase activity (Mushroom tyrosinase; 20 μg/ml) | % inhibition of tyrosinase activity (Mushroom tyrosinase; 40 μg/ml) | % inhibition of tyrosinase activity (Mushroom tyrosinase; 60 μg/ml) | % inhibition of tyrosinase activity (Mushroom tyrosinase; 80 μg/ml) | % inhibition of tyrosinase activity (Mushroom tyrosinase; 100 μg/ml)
O=C(O[C@@H]1Cc2c(O)cc(O)cc2O[C@@H]1c1cc(O)c(O)c(O)c1)c1cc(O)c(O)c(O)c1 [EGCG, epigallocatechin gallate] | 43.98% | 54.36% | 53.32% | 60.37% | 62.45% | 8.30% | 16.93% | 25.83% | 32.70% | 41.52% | – | – | – | – | –
O=c1cc(CO)occ1O [Kojic acid, kojic acid] | – | – | – | – | – | – | – | – | – | – | 64.46% | 77.66% | 88.32% | 91.37% | 93.90%
